Measurements published in PubChem BioAssay AID652047 (Broad Institute, 2013).
Calls of active or inactive are those of the source.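 How the source made its calls: active means fitted curve reaches activity change of -35% signal drop at a concentration below twice the top valid tested dose; inactive means the rest, including activity in the opposite direction.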

test: antimalarial activity against intraerythrocytic 3D7 parasites – 3D7 strain, red blood cells, SYBR Green, cherry-picked, dose response (AID 652047);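 further: 0% = untreated neutral control wells and -100% = mefloquine positive control wells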; details: P. falciparum 3D7 in RBCs, SYBR Green DNA fluorescence; at 16 µM (top of the series)

| SMILES | activity change, negative = inhibition |
| --- | --- |
| O/N=C/c1cc(Br)ccc1OCc1ccccc1F | 13.1% (inactive) |
| CC1Oc2ccccc2C=C1/C=N/Nc1ccc(C(=O)O)cc1 (stereo not given) | 17% (inactive) |

same assay, conditions: P. falciparum 3D7 in RBCs, SYBR Green DNA fluorescence; at 50 µM (top of the series)

| SMILES | activity change, negative = inhibition |
| --- | --- |
| CCC(Oc1ccc(Br)cc1Cl)C(=O)Nc1nnc(C2CC2)s1 (stereo not given) | -18.5% (inactive) |
| CC(C)CSc1n[nH]c(=S)s1 | -1.47% (inactive) |
| CCn1c(CNc2ccc(Cl)cc2)nnc1SCc1ccccc1 | -1.95% (inactive) |
| FC(F)(F)c1nc(SCc2ccc(Cl)cc2Cl)n[nH]1 | 8.98% (inactive) |
| COc1ccc(N(C(=O)c2ccncc2)S(=O)(=O)c2ccccc2)cc1 | -18.5% (inactive) |
| CC12CCC(O)CC1=CCC1C2CCC2(C)C3=NN=CC3CC12 (stereo not given) | -27.5% (inactive) |
| CCCSC(=S)c1c(C)[nH]n(-c2ccccc2)c1=O | -28.2% (inactive) |
| CCCCc1ccc(-n2c(Cc3cccs3)n[nH]c2=S)cc1 | -28% (inactive) |
| CC1CCN(c2ccc3c(c2)S(=O)(=O)c2ccccc2C3=O)CC1 | -3.18% (inactive) |
| Cc1nc2ccc(C(=O)NCc3ccc4c(c3)OCO4)cc2s1 | 1.05% (inactive) |
| CCc1ccc(S(=O)(=O)N(C(=O)c2ccncc2)c2ccc(OC(=O)c3ccncc3)cc2)cc1 | -20% (inactive) |
| CCCC1CCC(c2ccc(/C(N)=N/O)cc2)CC1 (stereo not given) | -10.1% (inactive) |
| O=C(c1ccccc1)c1ccc(Cn2cc(-c3ccccc3)nn2)cc1 | -9.93% (inactive) |
| c1ccc(-c2ccc(OCCCn3cncn3)cc2)cc1 | 6.71% (inactive) |
| Oc1c(Br)cc(-c2ccccc2)cc1Br | -1.67% (inactive) |
| COC(=O)COC(=O)c1ccccc1NC(=O)c1ccccc1 | -21% (inactive) |
| COc1ccc(N(C)S(=O)(=O)c2ccc(Cl)c(C(=O)NNC(=O)c3ccccc3O)c2)cc1 | -2.22% (inactive) |
| CCCn1c(=O)c(C(=O)NCc2ccc(OC)c(OC)c2)c(O)c2ccccc21 | -23.6% (inactive) |
| CCOC(=O)c1ccc(N2C(=O)CC(N3CCC(O)(c4ccc(Cl)cc4)CC3)C2=O)cc1 (stereo not given) | 7.67% (inactive) |

| SMILES | activity change, negative = inhibition |
| --- | --- |
| COC(OC)c1ccc(C#N)c(SCc2ccccc2)n1 | -2.94% (inactive) |
| Nc1nc2sc3c(c2c(=O)s1)CCCC3 | -14.6% (inactive) |
| O=C(c1ccc(Cl)cc1)N1CCN(c2ccc(F)cc2)CC1 | -26.4% (inactive) |
| COc1cc2c(c(OC)c1OC)-c1ccc(O)c(=O)cc1[C@@H](NC(C)=O)CC2 | -10.9% (inactive) |
| CCOc1ccc(N/N=C(/C#N)C(N)=O)cc1 | -29.8% (inactive) |
| Cc1ccc(C(=O)C(SC(C)(C)C)n2cncn2)cc1 (stereo not given) | -13% (inactive) |
| COc1cccc(C(C)=C2SC(=S)NC2=O)c1 | -18.5% (inactive) |
| Nc1nc(-c2ccc(Oc3ccccc3)cc2)cs1 | -0.359% (inactive) |
| COC(=O)C1=NN(C(=O)c2cccc(Br)c2)C(O)(c2ccc(Cl)cc2)C1 (stereo not given) | -78.6% (inactive) |
| O=C(N/N=C/c1cc(Cl)cc([N+](=O)[O-])c1O)c1ccccc1NS(=O)(=O)c1cccs1 | 3.85% (inactive) |
| O/N=C/c1ccccc1OCc1ccc(Cl)cc1 | -27.3% (inactive) |
| CC(C)NC(=O)NC(=O)COC(=O)c1ccc([N+](=O)[O-])cc1Cl | 16.4% (inactive) |
| CC1(C)CC(=O)C(N=Nc2ccc3ncsc3c2)=C(O)C1 | -15.1% (inactive) |
| O=C(c1ccccc1)N1C(=O)C(c2ccccc2)Oc2ccccc21 (stereo not given) | -36.8% (inactive) |
| Cc1cc(NS(=O)(=O)c2ccc(C3CCCCC3)cc2)no1 | 27.3% (inactive) |
| CCCOc1ccc2ccccc2c1/C=C1\SC(=O)NC1=O | -22.2% (inactive) |
| CC1=NN(C(N)=S)C(=O)C1N=Nc1cccc(Cl)c1C (stereo not given) | -20.7% (inactive) |
| O=C(O)CSc1nc(-c2ccc(Cl)cc2)nc2c1oc1ccccc12 | -31.1% (inactive) |
| COc1cccc(CC(=O)Nc2ccc3nc(C)sc3c2)c1 | -2.47% (inactive) |
